Experimental data from patent US5622967A, “Quinolone carboxamide Calpain inhibitors” (Sterling Winthrop, Inc., priority 1995, dated 1997).

Each compound was assayed against T1, human calpain I (Homo sapiens, UniProt P07384) (assay: Calpain I Inhibition Assay (3H-acetyl casein degradation)). Conditions: human erythrocyte calpain I; 3H-acetyl Casein substrate; 25° C., 2 hours incubation; read-out: IC50 against human calpain I.
T1 construct: The isolation of calpain from human erythrocytes was similar to that described by Wang et al. (1988); from tissue; host or cells: human red blood cells (packed red cells, American Red Cross); partially purified on DEAE-Sephacel and phenyl-Sepharose CL-4B
T1 sequence (P07384 1-714): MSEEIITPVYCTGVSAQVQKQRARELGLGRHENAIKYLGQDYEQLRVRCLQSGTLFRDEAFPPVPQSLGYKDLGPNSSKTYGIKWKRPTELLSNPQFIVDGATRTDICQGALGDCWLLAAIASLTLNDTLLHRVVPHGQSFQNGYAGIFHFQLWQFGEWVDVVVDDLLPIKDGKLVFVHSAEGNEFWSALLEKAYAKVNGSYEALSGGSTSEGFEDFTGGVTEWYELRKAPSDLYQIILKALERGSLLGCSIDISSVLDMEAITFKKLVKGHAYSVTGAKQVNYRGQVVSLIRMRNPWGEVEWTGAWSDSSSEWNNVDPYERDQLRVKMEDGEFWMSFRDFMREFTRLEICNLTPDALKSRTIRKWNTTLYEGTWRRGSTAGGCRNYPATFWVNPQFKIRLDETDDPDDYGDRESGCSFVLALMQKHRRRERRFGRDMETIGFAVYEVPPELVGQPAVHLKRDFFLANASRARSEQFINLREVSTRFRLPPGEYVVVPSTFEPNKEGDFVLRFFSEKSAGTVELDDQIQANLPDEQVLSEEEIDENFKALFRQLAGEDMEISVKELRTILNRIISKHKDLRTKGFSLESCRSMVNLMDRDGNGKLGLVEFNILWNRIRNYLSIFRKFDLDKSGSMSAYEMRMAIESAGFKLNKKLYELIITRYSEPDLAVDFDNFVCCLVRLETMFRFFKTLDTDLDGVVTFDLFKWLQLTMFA
T1 sequence (P04632 1-268 partner): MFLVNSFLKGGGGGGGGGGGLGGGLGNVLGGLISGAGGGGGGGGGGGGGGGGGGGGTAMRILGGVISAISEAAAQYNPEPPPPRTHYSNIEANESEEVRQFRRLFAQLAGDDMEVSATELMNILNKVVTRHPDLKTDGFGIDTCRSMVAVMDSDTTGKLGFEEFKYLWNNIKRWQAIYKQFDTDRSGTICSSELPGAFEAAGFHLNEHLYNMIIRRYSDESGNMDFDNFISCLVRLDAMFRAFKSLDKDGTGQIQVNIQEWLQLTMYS
Type: biochemical
Protocol: Compounds of the present invention were tested for calpain I inhibition activity using the following assay method.
Calpain I InhibitionAssay
Isolation of Human erythrocyte Calpain I
Human red blood cells were obtained from the Northeastern New York Chapter of the American Red Cross. The isolation of calpain from human erythrocytes was similar to that described by Wang et al. (1988). One unit of in-dated packed red cells was diluted with an equal volume of diluting/wash solution and centrifuged. The supernatant was removed and the procedure was repeated. The washed cells were pooled, lysed with 700 mL of lysing solution and centrifuged to remove cell debris. The membrane-free hemolysate was added to 500 mL DEAE-sephacel and the slurry was stirred gently at 4° C. for 1 hour.
Batch elution was done using DEAE-sephacel wash solution to remove a large amount of unwanted protein, most of which was hemoglobin. The slurry was poured into a column connected in tandem to a phenyl-sepharose CL-4B column. Material eluted from the DEAE-sephacel was applied directly to the phenyl-sepharose CL-4B. The phenyl-sepharose CL-4B column was washed first with 75 mM NaCl and then with no salt. Calpain begins to disassociate from the […] with the 75 mM NaCl but the majority should adhere to the column until the salt is removed. Fractions were collected (20 mL), assayed for caseinolytic activity with and without calpastatin and pooled accordingly. The pooled fractions were concentrated using an Amicon stirred cell equipped with a YK-10 membrane. Calpain was stored at 4° C. with 10 mM EDTA and 5 mM 2-mercaptoethanol and is stable for at least 6 months.
The tritated assay is a modification of that described by Gopalakrishna, R. and Barsky, S.H., Anal. Biochem., 148, 413,1985. All reagents, compound 25 ul, HEPES buffer 25 ul, CaCl2 50 ul, enzyme 50 ul, and ^3 H-acetyl Casein, were combined in 1 mL polystyrene titer plates. The plates were preincubated at 25° C. for 5 min with gentle shaking prior to the addition of substrate. The incubation was continued for an additional 2 hours and was terminated with the addition of 0.5 mL ice cold 5% TCA. Unlabled casein was added, samples were centrifuged and 0.5 mL of the supernatant was counted in 5 mL of Ready Protein liquid scintillation cocktail for 2 min. This assay measures ^3 H-acetyl Casein degradation as an endpoint for calpain activity.
`NC(=O)c1cn(-c2ccc(O)cc2Cl)c2cc(-c3ccoc3)ccc2c1=O` [Example 10, 1,4-Dihydro-1-(2-chloro-4-hydroxyphenyl)-4-oxo-7-(3-furyl)-3-quinolinecarboxamide] was tested, and the IC50 was 1700 nM.
`NC(=O)c1cn(-c2ccc(O)cc2Cl)c2cc(-c3cc[nH]n3)ccc2c1=O` [Example 13, 1,4-Dihydro-1-(2-chloro-4-hydroxyphenyl)-4-oxo-7-(3-pyrazolyl)-3-quinolinecarboxamide] showed an IC50 of 570 nM.
`Cc1cc(O)ccc1-n1cc(C(N)=O)c(=O)c2ccc(-c3ccncc3)cc21` [Example 6, 1,4-Dihydro-1-(2-methyl-4-hydroxyphenyl)-4-oxo-7-(4-pyridinyl)-3-quinolinecarboxamide] was tested, and the IC50 was 510 nM.
With `NC(=O)c1cn(-c2ccc(O)cc2F)c2cc(-c3ccncc3)ccc2c1=O` [Example 4, 1,4-Dihydro-1-(2-fluoro-4-hydroxyphenyl)-4-oxo-7-(4-pyridinyl)-3-quinolinecarboxamide] the IC50 was 7400 nM.
`NC(=O)c1cn(-c2ccc(O)cc2C(F)(F)F)c2cc(-c3ccncc3)ccc2c1=O` [Example 7, 1,4-Dihydro-1-(2-trifluoromethyl-4-hydroxyphenyl)-4-oxo-7-(4-pyridinyl)-3-quinolinecarboxamide] showed an IC50 of 16000 nM.
Compound `NC(=O)c1cn(-c2ccc(O)cc2Cl)c2cc(-c3cccnc3)ccc2c1=O` [Example 9, 1,4,Dihydro-1-(2-chloro-4-hydroxyphenyl)-4-oxo-7-(3-pyridinyl)-3-quinolinecarboxamide] has an IC50 of 12000 nM.
For `NC(=O)c1cn(-c2ccc(O)cc2)c2cc(-c3ccncc3)ccc2c1=O` [Example 1, 1,4-Dihydro-1-(4-hydroxyphenyl)-4-oxo-7-(4-pyridinyl)=3-quinolinecarboxamide], the IC50 was 2000 nM.
`NC(=O)c1cn(-c2ccc(O)cc2Cl)c2cc(-c3ccnnc3)ccc2c1=O` [Example 12, 1,4-Dihydro-1-(2-chloro-4-hydroxyphenyl)-4-oxo-7-(4-pyridazinyl)-3-quinolinecarboxamide] gave an IC50 of 1700 nM.
Compound `NC(=O)c1cn(-c2ccc(O)cc2Cl)c2cc(-c3ccncc3)ccc2c1=O` [Example 8, 1,4-Dihydro-1-(2-chloro-4-hydroxyphenyl)-4-oxo-7-(4-pyridinyl)-3-quinolinecarboxamide] has an IC50 of 600 nM.
`NC(=O)c1cn(-c2ccc(O)c(F)c2)c2cc(-c3ccncc3)ccc2c1=O` [Example 5, 1,4-Dihydro-1-(3-fluoro-4-hydroxyphenyl)-4-oxo-7-(4-pyridinyl)-3-quinolinecarboxamide] showed an IC50 of 5000 nM.
In the case of `NC(=O)c1cn(-c2ccc(O)c(O)c2)c2cc(-c3ccncc3)ccc2c1=O` [Example 2, 1,4,Dihydro-1-(3.4-dihydroxyphenyl)-4-oxo-7-(4-pyridinyl),3-quinolinecarboxamide], the IC50 is reported as 7000 nM.
With `NC(=O)c1cn(-c2ccc(O)cc2Cl)c2cc(-c3ccncc3Cl)ccc2c1=O` [Example 11] the IC50 was 1700 nM.
`NC(=O)c1cn(-c2ccc(O)c(Cl)c2)c2cc(-c3ccncc3)ccc2c1=O` [Example 3, 1,4-Dihydro-1-(3-chloro-4-hydroxyphenyl)-4-oxo-7-(4-pyridinyl)-3-quinolinecarboxamide] showed an IC50 of 2000 nM.
